Like-named read-outs stand apart in the source and are kept apart here.
Key:
PfCRT^Dd2 [1] = target: T1, PfCRT^Dd2 (Plasmodium falciparum, UniProt Q9N623, A220S/I356T/K76T/M74I/N326S/N75E/Q271E/R371I); test: cell-based; type: cell-based; settings: for Uptake of [3H]CQ (% PfCRTDd2 control), trans-stimulation / PfCRT-mediated [3H]CQ transport, trans-stimulation (% PfCRTDd2 control): PfCRTDd2 oocytes; for Uptake of [3H]CQ (% PfCRTDd2 control), trans-stimulation: total [3H]CQ transport, normalised to the oocyte type control; for PfCRT-mediated [3H]CQ transport, trans-stimulation (% PfCRTDd2 control): normalised to oocyte type control; for [3H]CQ transport (% PfCRTDd2 control), trans-stimulation, PfCRTDd2: PfCRT-mediated component (background subtracted), mean ± SEM, SEM
T1 sequence (Q9N623 whole entry A220S/I356T/K76T/M74I/N326S/N75E/Q271E/R371I): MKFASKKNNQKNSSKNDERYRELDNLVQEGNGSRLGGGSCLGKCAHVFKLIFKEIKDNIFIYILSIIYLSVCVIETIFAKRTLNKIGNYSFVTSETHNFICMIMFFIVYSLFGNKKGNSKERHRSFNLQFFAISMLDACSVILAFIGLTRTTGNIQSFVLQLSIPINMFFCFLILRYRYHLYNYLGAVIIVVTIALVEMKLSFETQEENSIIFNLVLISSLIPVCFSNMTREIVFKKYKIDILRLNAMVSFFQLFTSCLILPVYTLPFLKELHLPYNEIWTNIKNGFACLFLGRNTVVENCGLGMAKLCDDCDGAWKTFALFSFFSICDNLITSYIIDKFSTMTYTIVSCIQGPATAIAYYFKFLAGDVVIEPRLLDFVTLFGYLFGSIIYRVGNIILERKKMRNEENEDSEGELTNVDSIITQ
Procedure, shortened: (§1)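 Oocytes (ten per treatment, ≥4 independent frogs/days) were preloaded by injecting VF-6 in 25 nL ND96 at pH 5.0, 5.5, 6.0 or 7.0, or Na^+-free choline buffer, then uptake run 1.5 h, 27.5 °C, ND96 pH 5.5 by default. Internal concentrations assumed ~400 nL oocyte volume.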

PfNT1 = target: T2, PfNT1 (Plasmodium falciparum, UniProt Q8IDM6); test: cell-based; type: cell-based; settings: PfNT1 oocytes, total [3H]CQ transport, normalised to the oocyte type control
T2 construct: expressed in transfected cells; host or cells: Xenopus laevis oocytes (stage V-VI), cRNA-injected
T2 sequence (Q8IDM6 whole entry): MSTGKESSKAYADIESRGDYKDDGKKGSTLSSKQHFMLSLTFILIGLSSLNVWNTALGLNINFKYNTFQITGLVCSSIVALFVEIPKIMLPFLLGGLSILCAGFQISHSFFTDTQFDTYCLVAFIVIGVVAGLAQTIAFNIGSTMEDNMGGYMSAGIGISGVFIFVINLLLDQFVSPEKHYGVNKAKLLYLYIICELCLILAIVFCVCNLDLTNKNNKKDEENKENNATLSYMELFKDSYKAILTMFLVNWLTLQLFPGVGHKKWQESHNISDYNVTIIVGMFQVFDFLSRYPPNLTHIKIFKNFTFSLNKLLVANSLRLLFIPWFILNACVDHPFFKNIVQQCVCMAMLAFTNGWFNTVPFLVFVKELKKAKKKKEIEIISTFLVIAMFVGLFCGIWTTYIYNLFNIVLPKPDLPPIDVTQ
Procedure, shortened: as §1

PfCRT^3D7 [2] = target: T3, PfCRT^3D7 (Plasmodium falciparum, UniProt Q8IBZ9); test: cell-based; type: cell-based; settings: PfCRT3D7 oocytes; for Uptake of [3H]CQ (% PfCRT3D7 control), trans-stimulation: total [3H]CQ transport, normalised to the oocyte type control; for PfCRT-mediated [3H]CQ transport, trans-stimulation (% PfCRT3D7 control): normalised to oocyte type control
T3 sequence (Q8IBZ9 59-398): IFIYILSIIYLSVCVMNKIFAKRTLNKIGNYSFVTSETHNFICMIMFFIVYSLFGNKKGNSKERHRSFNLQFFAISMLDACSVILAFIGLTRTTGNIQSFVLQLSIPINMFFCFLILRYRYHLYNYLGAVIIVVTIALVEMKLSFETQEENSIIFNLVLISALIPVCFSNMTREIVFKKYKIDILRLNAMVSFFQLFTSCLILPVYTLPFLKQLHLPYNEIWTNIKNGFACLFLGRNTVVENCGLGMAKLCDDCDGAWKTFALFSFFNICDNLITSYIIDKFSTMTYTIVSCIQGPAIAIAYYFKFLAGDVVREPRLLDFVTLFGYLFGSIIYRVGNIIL
Procedure, shortened: as §1

PfCRT^Ecu1110 [3] = target: T4, PfCRT^Ecu1110 (Plasmodium falciparum, UniProt Q9N623, A220S/I356L/K76T/N326D); test: cell-based; type: cell-based; settings: for Uptake of [3H]CQ (% PfCRTEcu1110 control), trans-stimulation / PfCRT-mediated [3H]CQ transport, trans-stimulation (% PfCRTEcu1110 control): PfCRTEcu1110 oocytes; for Uptake of [3H]CQ (% PfCRTEcu1110 control), trans-stimulation: total [3H]CQ transport, normalised to the oocyte type control; for PfCRT-mediated [3H]CQ transport, trans-stimulation (% PfCRTEcu1110 control): normalised to oocyte type control; for [3H]CQ transport (% PfCRTDd2 control), trans-stimulation, PfCRTEcu1110: PfCRT-mediated component (background subtracted), sheet title says normalised to PfCRTDd2 control, mean ± SEM, SEM
T4 sequence (Q9N623 whole entry A220S/I356L/K76T/N326D): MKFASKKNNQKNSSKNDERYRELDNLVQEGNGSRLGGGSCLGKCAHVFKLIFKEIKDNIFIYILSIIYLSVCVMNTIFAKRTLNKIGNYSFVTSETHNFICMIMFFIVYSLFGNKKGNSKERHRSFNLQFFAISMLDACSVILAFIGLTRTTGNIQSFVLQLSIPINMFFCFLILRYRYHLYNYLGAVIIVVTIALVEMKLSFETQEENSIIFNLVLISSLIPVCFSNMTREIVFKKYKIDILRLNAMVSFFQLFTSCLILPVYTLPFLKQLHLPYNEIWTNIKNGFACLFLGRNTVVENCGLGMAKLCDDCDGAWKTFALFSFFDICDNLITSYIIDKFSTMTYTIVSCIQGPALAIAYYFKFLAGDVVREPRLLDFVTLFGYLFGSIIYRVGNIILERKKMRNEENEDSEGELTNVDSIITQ
Procedure, shortened: as §1

PfCRT^3D7 [4] = target: T3, PfCRT^3D7; test: cell-based; type: cell-based; settings: PfCRT3D7 oocytes, total [3H]CQ transport, normalised to the oocyte type control
Procedure, shortened: (§2)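 ND96, pH 5.5, 1.5 h, 27.5 °C; uptake direction acidic outside → oocyte cytosol, mimicking efflux from digestive vacuole. Ice-cold wash stop, 10% SDS lysis, scintillation counting. Ten oocytes/treatment, ≥4 independent experiments.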

non-expressing oocytes [5] = test: cells; type: cell-based, Xenopus laevis; settings: non-expressing oocytes, total [3H]CQ transport, normalised to the oocyte type control
Procedure, shortened: as §2

non-expressing oocytes [6] = type: cell-based, Xenopus laevis; settings: non-expressing oocytes, total [3H]CQ transport, normalised to the oocyte type control
Procedure, shortened: as §1

PfCRT^Dd2 [7] = target: T1, PfCRT^Dd2; test: [3H]CQ uptake into Xenopus oocytes, cis-inhibition by unlabelled solute; type: cell-based; settings: PfCRTDd2 oocytes, background [3H]CQ accumulation subtracted, normalised to oocyte type control
Procedure, shortened: as §2

PfCRT^Ecu1110 [8] = target: T4, PfCRT^Ecu1110; test: as above; type: cell-based; settings: for Uptake of [3H]CQ (% PfCRTEcu1110 control), cis-inhibition / PfCRT-mediated [3H]CQ transport, cis-inhibition (% PfCRTEcu1110 control): PfCRTEcu1110 oocytes; for Uptake of [3H]CQ (% PfCRTEcu1110 control), cis-inhibition: total [3H]CQ transport, normalised to the oocyte type control; for PfCRT-mediated [3H]CQ transport, cis-inhibition (% PfCRTEcu1110 control): background [3H]CQ accumulation subtracted, normalised to oocyte type control; for [3H]CQ transport (% PfCRTEcu1110 control), cis-inhibition, PfCRTEcu1110: PfCRT-mediated component (background subtracted), sheet title says normalised to PfCRTDd2 control, mean ± SEM, SEM
Procedure, shortened: as §2

[9] = [test solute]i = 45 mM (30 mM for some solutes due to solubility)
[10] = [test solute]i = 5 mM (intracellular)
[11] = [test solute]i = 45 mM (intracellular; 30 mM for some solutes due to solubility)
[12] = [test solute]i = 5 mM (injected)

## PNAL [PL-4, host-derived peptide]
PfCRT^Dd2 [1]; [test solute]i = 5 mM
  Uptake of [3H]CQ (% PfCRTDd2 control), trans-stimulation: 99 ± 3.4 % PfCRTDd2 control
PfCRT^Dd2 [1]; [9]
  Uptake of [3H]CQ (% PfCRTDd2 control), trans-stimulation: 97 ± 4.3 % PfCRTDd2 control
  [3H]CQ transport (% PfCRTDd2 control), trans-stimulation, PfCRTDd2: 95 ± 3.8 % PfCRTDd2 control
PfCRT^Dd2 [1]; [10]
  PfCRT-mediated [3H]CQ transport, trans-stimulation (% PfCRTDd2 control): 97 ± 2.1 % PfCRTDd2 control
PfCRT^Dd2 [1]; [11]
  PfCRT-mediated [3H]CQ transport, trans-stimulation (% PfCRTDd2 control): 95 ± 3.8 % PfCRTDd2 control
PfCRT^Dd2 [1]; [12]
  [3H]CQ transport (% PfCRTDd2 control), trans-stimulation, PfCRTDd2: 97 ± 2.1 % PfCRTDd2 control
PfNT1; [test solute]i = 5 mM
  Uptake of [3H]CQ (% PfNT1 control), trans-stimulation: 99 ± 3.2 % PfNT1 control
PfNT1; [9]
  Uptake of [3H]CQ (% PfNT1 control), trans-stimulation: 100 ± 2.4 % PfNT1 control
PfCRT^3D7 [2]; [test solute]i = 5 mM
  Uptake of [3H]CQ (% PfCRT3D7 control), trans-stimulation: 100 ± 2.2 % PfCRT3D7 control
PfCRT^3D7 [2]; [9]
  Uptake of [3H]CQ (% PfCRT3D7 control), trans-stimulation: 101 ± 2.1 % PfCRT3D7 control
PfCRT^3D7 [2]; [10]
  PfCRT-mediated [3H]CQ transport, trans-stimulation (% PfCRT3D7 control): 98 ± 4.3 % PfCRT3D7 control
PfCRT^3D7 [2]; [11]
  PfCRT-mediated [3H]CQ transport, trans-stimulation (% PfCRT3D7 control): 99 ± 3.4 % PfCRT3D7 control
PfCRT^Ecu1110 [3]; [test solute]i = 5 mM
  Uptake of [3H]CQ (% PfCRTEcu1110 control), trans-stimulation: 99 ± 3.3 % PfCRTEcu1110 control
PfCRT^Ecu1110 [3]; [9]
  Uptake of [3H]CQ (% PfCRTEcu1110 control), trans-stimulation: 100 ± 2.2 % PfCRTEcu1110 control
  [3H]CQ transport (% PfCRTDd2 control), trans-stimulation, PfCRTEcu1110: 30 ± 1.4 % PfCRTEcu1110 control
PfCRT^Ecu1110 [3]; [10]
  PfCRT-mediated [3H]CQ transport, trans-stimulation (% PfCRTEcu1110 control): 97 ± 4.9 % PfCRTEcu1110 control
PfCRT^Ecu1110 [3]; [11]
  PfCRT-mediated [3H]CQ transport, trans-stimulation (% PfCRTEcu1110 control): 98 ± 3.0 % PfCRTEcu1110 control
PfCRT^Ecu1110 [3]; [12]
  [3H]CQ transport (% PfCRTDd2 control), trans-stimulation, PfCRTEcu1110: 29 ± 1.7 % PfCRTEcu1110 control
PfCRT^3D7 [4]; [test solute] = 0.5 mM
  Uptake of [3H]CQ (% PfCRT3D7 control), cis-inhibition: 99 ± 5.3 % PfCRT3D7 control
PfCRT^3D7 [4]; [test solute] = 1 mM
  Uptake of [3H]CQ (% PfCRT3D7 control), cis-inhibition: 98 ± 5.7 % PfCRT3D7 control
PfCRT^3D7 [4]; [test solute] = 2 mM
  Uptake of [3H]CQ (% PfCRT3D7 control), cis-inhibition: 101 ± 6.3 % PfCRT3D7 control
non-expressing oocytes [5]; [test solute] = 1 mM
  Uptake of [3H]CQ (% non-expressing oocyte control), cis-inhibition: 100 ± 4.7 % non-expressing oocyte control
non-expressing oocytes [5]; [test solute] = 2 mM
  Uptake of [3H]CQ (% non-expressing oocyte control), cis-inhibition: 99 ± 3.6 % non-expressing oocyte control
non-expressing oocytes [6]; [test solute]i = 5 mM
  Uptake of [3H]CQ (% non-expressing oocyte control), trans-stimulation: 100 ± 3.8 % non-expressing oocyte control
non-expressing oocytes [6]; [9]
  Uptake of [3H]CQ (% non-expressing oocyte control), trans-stimulation: 99 ± 3.7 % non-expressing oocyte control
PfCRT^Dd2 [7]; [test solute] = 0.5 mM
  PfCRT-mediated [3H]CQ transport, cis-inhibition (% PfCRTDd2 control): 68 ± 2.6 % PfCRTDd2 control
PfCRT^Dd2 [7]; [test solute] = 1 mM
  PfCRT-mediated [3H]CQ transport, cis-inhibition (% PfCRTDd2 control): 55 ± 4.1 % PfCRTDd2 control
PfCRT^Dd2 [7]; [test solute] = 2 mM
  PfCRT-mediated [3H]CQ transport, cis-inhibition (% PfCRTDd2 control): 39 ± 1.8 % PfCRTDd2 control
PfCRT^Ecu1110 [8]; [test solute] = 0.5 mM
  Uptake of [3H]CQ (% PfCRTEcu1110 control), cis-inhibition: 66 ± 2.9 % PfCRTEcu1110 control
  PfCRT-mediated [3H]CQ transport, cis-inhibition (% PfCRTEcu1110 control): 58 ± 0.5 % PfCRTEcu1110 control
  [3H]CQ transport (% PfCRTEcu1110 control), cis-inhibition, PfCRTEcu1110: 18 ± 0.2 % PfCRTEcu1110 control
PfCRT^Ecu1110 [8]; [test solute] = 1 mM
  Uptake of [3H]CQ (% PfCRTEcu1110 control), cis-inhibition: 57 ± 2.7 % PfCRTEcu1110 control
  PfCRT-mediated [3H]CQ transport, cis-inhibition (% PfCRTEcu1110 control): 52 ± 2.6 % PfCRTEcu1110 control
  [3H]CQ transport (% PfCRTEcu1110 control), cis-inhibition, PfCRTEcu1110: 16 ± 0.1 % PfCRTEcu1110 control
PfCRT^Ecu1110 [8]; [test solute] = 2 mM
  Uptake of [3H]CQ (% PfCRTEcu1110 control), cis-inhibition: 45 ± 2.4 % PfCRTEcu1110 control
  PfCRT-mediated [3H]CQ transport, cis-inhibition (% PfCRTEcu1110 control): 39 ± 2.1 % PfCRTEcu1110 control
  [3H]CQ transport (% PfCRTEcu1110 control), cis-inhibition, PfCRTEcu1110: 12 ± 0.3 % PfCRTEcu1110 control
